Experimental findings from PubChem BioAssay AID248 (DTP/NCI, 2004) are described below.

“And” between values parts separate entries of the source, which are not always exact repeats. Equal values may be shown once. Inconclusive results and toxic doses are left out.

The test has as its system L1210 leukemia ip in BDF1 mice, survival T/C. Briefly: NCI In Vivo Anticancer Drug Screen. Data for tumor model L1210 Leukemia (intraperitoneal) in B6D2F1 (BDF1) mice. As to conditions: endpoint: mean survival time, higher = longer survival. Summed up:
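Mice bearing the transplanted tumor received compound or vehicle. Survival of the treated group was divided by that of the vehicle-treated control group to give the ratio.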

Setting [1] is: dose: 100.0 mg/kg/injection, schedule: Q01DX001 (ip), vehicle: saline with Tween-80.
The mark [2] stands for this setting: dose: 100.0 mg/kg/injection, schedule: Q01DX009 (ip), vehicle: saline with Tween-80.
[3] abbreviates: dose: 100.0 mg/kg/injection, schedule: Q04DX002 (ip), vehicle: saline with Tween-80.
[4] abbreviates: dose: 100.0 mg/kg/injection, schedule: Q04DX003 (ip), vehicle: saline with Tween-80.
Where [5] appears, read: dose: 200.0 mg/kg/injection, schedule: Q01DX001 (ip), vehicle: saline with Tween-80.
Where [6] appears, read: dose: 200.0 mg/kg/injection, schedule: Q01DX009 (ip), vehicle: saline with Tween-80.
[7] abbreviates: dose: 200.0 mg/kg/injection, schedule: Q04DX002 (ip), vehicle: saline with Tween-80.
Setting [8] is: dose: 200.0 mg/kg/injection, schedule: Q04DX003 (ip), vehicle: saline with Tween-80.
Setting [9] is: dose: 400.0 mg/kg/injection, schedule: Q01DX009 (ip), vehicle: saline with Tween-80.
Setting [10] is: dose: 400.0 mg/kg/injection, schedule: Q04DX002 (ip), vehicle: saline with Tween-80.
Where [11] appears, read: dose: 100.0 mg/kg/injection, schedule: Q04DX003 (ip), vehicle: saline.
[12] abbreviates: dose: 200.0 mg/kg/injection, schedule: Q04DX003 (ip), vehicle: saline.
The mark [13] stands for this setting: dose: 100.0 mg/kg/injection, schedule: Q01DX009 (ip), vehicle: Klucel (hydroxypropylcellulose) (HPC).
[14] abbreviates: dose: 100.0 mg/kg/injection, schedule: Q04DX003 (ip), vehicle: Klucel (hydroxypropylcellulose) (HPC).
Where [15] appears, read: dose: 200.0 mg/kg/injection, schedule: Q01DX009 (ip), vehicle: Klucel (hydroxypropylcellulose) (HPC).
Where [16] appears, read: dose: 200.0 mg/kg/injection, schedule: Q04DX003 (ip), vehicle: Klucel (hydroxypropylcellulose) (HPC).
Where [17] appears, read: dose: 400.0 mg/kg/injection, schedule: Q01DX009 (ip), vehicle: Klucel (hydroxypropylcellulose) (HPC).
Where [18] appears, read: dose: 400.0 mg/kg/injection, schedule: Q04DX003 (ip), vehicle: Klucel (hydroxypropylcellulose) (HPC).
Where [19] appears, read: dose: 50.0 mg/kg/injection, schedule: Q04DX002 (ip), vehicle: saline.
[20] abbreviates: dose: 100.0 mg/kg/injection, schedule: Q04DX002 (ip), vehicle: saline.
Where [21] appears, read: dose: 200.0 mg/kg/injection, schedule: Q04DX002 (ip), vehicle: saline.
The mark [22] stands for this setting: dose: 100.0 mg/kg/injection, schedule: Q04DX002 (ip), vehicle: Klucel (hydroxypropylcellulose) (HPC).
Where [23] appears, read: dose: 100.0 mg/kg/injection, schedule: Q01DX001 (ip), vehicle: saline.
Setting [24] is: dose: 200.0 mg/kg/injection, schedule: Q01DX001 (ip), vehicle: saline.
[25] abbreviates: dose: 400.0 mg/kg/injection, schedule: Q01DX001 (ip), vehicle: saline.

As for `CCOC(=O)c1ccc(NC(=O)Nc2cccc3c(O)cccc23)cc1`, the T/C was 102 % of control (dose: 50.0 mg/kg/injection, schedule: Q04DX003 (ip), vehicle: saline with Tween-80); 86 % of control under setting [1]; 86 % of control under setting [2]; 97 % of control and 106 % of control under setting [3]; 94 % of control under setting [4]; 86 % of control under setting [5]. Besides, the T/C by setting is: under setting [6], 89 % of control; under setting [7], 97 % of control and 91 % of control; under setting [8], 93 % of control and 87 % of control; under setting [9], 89 % of control; under setting [10], 89 % of control and 91 % of control; (dose: 400.0 mg/kg/injection, schedule: Q04DX003 (ip), vehicle: saline with Tween-80) 97 % of control.

As to `OCc1ccc[n+](CCc2c[nH]c3ccccc23)c1`, the T/C under setting [4] was 97 % of control and the T/C under setting [8] was 103 % of control.

As to `O=NN(CCCl)C(=O)Nc1ccc2c(c1)CCCC2`, the T/C reads like this: (dose: 31.0 mg/kg/injection, schedule: Q01DX001 (ip), vehicle: carboxymethylcellulose (CMC)) 124 % of control; (dose: 84.0 mg/kg/injection, schedule: Q01DX001 (ip), vehicle: carboxymethylcellulose (CMC)) 186 % of control; (dose: 119.0 mg/kg/injection, schedule: Q01DX001 (ip), vehicle: carboxymethylcellulose (CMC)) 231 % of control; (dose: 125.0 mg/kg/injection, schedule: Q01DX001 (ip), vehicle: carboxymethylcellulose (CMC)) 188 % of control; (dose: 178.0 mg/kg/injection, schedule: Q01DX001 (ip), vehicle: carboxymethylcellulose (CMC)) 216 % of control; (dose: 187.0 mg/kg/injection, schedule: Q01DX001 (ip), vehicle: carboxymethylcellulose (CMC)) 215 % of control. Besides, the T/C (dose: 238.0 mg/kg/injection, schedule: Q01DX001 (ip), vehicle: carboxymethylcellulose (CMC)) was 223 % of control; the T/C (dose: 250.0 mg/kg/injection, schedule: Q01DX001 (ip), vehicle: carboxymethylcellulose (CMC)) is 89 % of control; the T/C (dose: 357.0 mg/kg/injection, schedule: Q01DX001 (ip), vehicle: carboxymethylcellulose (CMC)) was 101 % of control.

Take `O=C(O)C(=O)Cc1nnn(-c2ccccc2)c1-c1ccccc1`: the T/C runs as follows: (dose: 75.0 mg/kg/injection, schedule: Q01DX001 (ip), vehicle: acetone) 95 % of control; (dose: 150.0 mg/kg/injection, schedule: Q01DX001 (ip), vehicle: acetone) 101 % of control; (dose: 300.0 mg/kg/injection, schedule: Q01DX001 (ip), vehicle: acetone) 95 % of control.

As to `CCn1c(C)[n+](CCCOS(=O)(=O)[O-])c2ccccc21`, the T/C reads like this: under setting [11], 97 % of control; under setting [12], 106 % of control.

As for `CCCCCC[CH2][Ge][CH2]CCCCCC`, the T/C runs as follows: under setting [3], 95 % of control; under setting [7], 92 % of control; under setting [10], 103 % of control.

Take `CC(C)C(=Nc1ccc(Cl)c(Cl)c1)N(C)C`: the T/C by setting is: (dose: 44.0 mg/kg/injection, schedule: Q01DX Z (ip), vehicle: methylcellulose (MC)) 95 % of control; (dose: 66.0 mg/kg/injection, schedule: Q01DX Z (ip), vehicle: methylcellulose (MC)) 102 % of control.

As for `Cc1ccc(NC(=O)Nc2ccccc2Cl)cc1Cl`, the T/C reads like this: under setting [13], 100 % of control; under setting [14], 112 % of control; under setting [15], 98 % of control; under setting [16], 96 % of control; under setting [17], 100 % of control; under setting [18], 94 % of control.

Turning to `CC(C)CN(OC(=O)c1ccccc1)[N+](=O)[O-]`, the T/C is 94 % of control under setting [19], 108 % of control under setting [20] and 102 % of control under setting [21].

Turning to `CCS(=O)(=O)OCCCl`, the T/C reads like this: (dose: 25.0 mg/kg/injection, schedule: Q01DX009 (ip), vehicle: Klucel (hydroxypropylcellulose) (HPC)) 94 % of control; (dose: 25.0 mg/kg/injection, schedule: Q04DX002 (ip), vehicle: Klucel (hydroxypropylcellulose) (HPC)) 97 % of control; (dose: 50.0 mg/kg/injection, schedule: Q01DX009 (ip), vehicle: Klucel (hydroxypropylcellulose) (HPC)) 93 % of control; (dose: 50.0 mg/kg/injection, schedule: Q04DX002 (ip), vehicle: Klucel (hydroxypropylcellulose) (HPC)) 94 % of control; (dose: 100.0 mg/kg/injection, schedule: Q01DX001 (ip), vehicle: carboxymethylcellulose (CMC)) 112 % of control; under setting [22], 102 % of control and 90 % of control. For the same compound, the T/C (dose: 200.0 mg/kg/injection, schedule: Q01DX001 (ip), vehicle: carboxymethylcellulose (CMC)) was 116 % of control.

For the compound `CC(C)c1ccc(NC(=O)c2ccc(Cl)c(Cl)c2)cc1`, the T/C under setting [13] is 98 % of control, the T/C under setting [15] was 91 % of control and the T/C under setting [17] is 93 % of control.

Take `CCn1cnc2cc(N=Cc3ccc(N(CCCl)CCCl)cc3Cl)ccc21`: the T/C is, setting by setting: under setting [22], 117 % of control; (dose: 200.0 mg/kg/injection, schedule: Q04DX002 (ip), vehicle: Klucel (hydroxypropylcellulose) (HPC)) 102 % of control; (dose: 400.0 mg/kg/injection, schedule: Q04DX002 (ip), vehicle: Klucel (hydroxypropylcellulose) (HPC)) 98 % of control.

For the compound `Cc1ccc(/C=N/NC(=O)c2ccc(N=NN(C)C)cc2)cc1`, the T/C reads like this: (dose: 50.0 mg/kg/injection, schedule: Q04DX003 (ip), vehicle: Klucel (hydroxypropylcellulose) (HPC)) 95 % of control; under setting [14], 99 % of control; under setting [16], 100 % of control.

As to `O=C(NCCCl)Nc1ccccn1`, the T/C runs as follows: under setting [14], 90 % of control; under setting [16], 94 % of control; under setting [18], 86 % of control.

Consider `O=C(Nc1nccs1)Nc1ccccc1C(F)(F)F`, for which the T/C runs as follows: under setting [2], 100 % of control; under setting [6], 106 % of control; under setting [9], 92 % of control.

On to `O=C(c1ccccn1)N1CCOCC1`, for which the T/C under setting [23] was 101 % of control; the T/C (dose: 100.0 mg/kg/injection, schedule: Q01DX009 (ip), vehicle: saline) was 98 % of control and 109 % of control; the T/C under setting [20] was 96 % of control and 116 % of control; the T/C under setting [11] is 98 % of control; the T/C under setting [24] was 105 % of control; the T/C (dose: 200.0 mg/kg/injection, schedule: Q01DX009 (ip), vehicle: saline) was 103 % of control and 104 % of control. Moreover, the T/C is 95 % of control and 97 % of control under setting [21]; 98 % of control under setting [12]; 97 % of control under setting [25]; 95 % of control and 103 % of control (dose: 400.0 mg/kg/injection, schedule: Q01DX009 (ip), vehicle: saline); 96 % of control and 103 % of control (dose: 400.0 mg/kg/injection, schedule: Q04DX002 (ip), vehicle: saline); 107 % of control (dose: 400.0 mg/kg/injection, schedule: Q04DX003 (ip), vehicle: saline).

In the case of `NC(Cc1cccnc1)C(=O)O` (stereo not drawn), the T/C under setting [1] was 109 % of control; the T/C under setting [5] was 103 % of control; the T/C (dose: 400.0 mg/kg/injection, schedule: Q01DX001 (ip), vehicle: saline with Tween-80) was 98 % of control.

Consider `CN(CCCl)C1c2ccccc2-c2ccccc21`, for which the T/C (dose: 25.0 mg/kg/injection, schedule: Q04DX002 (ip), vehicle: saline) is 100 % of control; the T/C under setting [19] is 100 % of control; the T/C under setting [20] is 106 % of control and 117 % of control.

As for `CC(C)(CO)N=Cc1ccccc1Br`, the T/C runs as follows: under setting [23], 110 % of control; under setting [24], 98 % of control; under setting [25], 90 % of control.

`Cc1ccc(Cl)c(Br)c1`: the T/C by setting is: under setting [23], 94 % of control; under setting [24], 96 % of control; under setting [25], 107 % of control.
